Values quoted from earlier work in PMC9851200, “Multiparameter phenotypic screening for endogenous TFEB and TFE3 translocation identifies novel chemical series modulating lysosome function” (Autophagy, 2022).

What was measured:
Design in all cases: method as in original PKIS2 published data
[1] = target: kinases (KINOMEscan panel) (Homo sapiens, UniProt P78362); settings: SRPK2; Published KINOMEscan; ref original PKIS2 published data; cited from earlier work
[2] = target: T1, kinases (KINOMEscan panel) (Homo sapiens, UniProt P41743); settings: PRKCI; Published KINOMEscan; ref original PKIS2 published data; cited from earlier work
T1 sequence (P41743 1-596): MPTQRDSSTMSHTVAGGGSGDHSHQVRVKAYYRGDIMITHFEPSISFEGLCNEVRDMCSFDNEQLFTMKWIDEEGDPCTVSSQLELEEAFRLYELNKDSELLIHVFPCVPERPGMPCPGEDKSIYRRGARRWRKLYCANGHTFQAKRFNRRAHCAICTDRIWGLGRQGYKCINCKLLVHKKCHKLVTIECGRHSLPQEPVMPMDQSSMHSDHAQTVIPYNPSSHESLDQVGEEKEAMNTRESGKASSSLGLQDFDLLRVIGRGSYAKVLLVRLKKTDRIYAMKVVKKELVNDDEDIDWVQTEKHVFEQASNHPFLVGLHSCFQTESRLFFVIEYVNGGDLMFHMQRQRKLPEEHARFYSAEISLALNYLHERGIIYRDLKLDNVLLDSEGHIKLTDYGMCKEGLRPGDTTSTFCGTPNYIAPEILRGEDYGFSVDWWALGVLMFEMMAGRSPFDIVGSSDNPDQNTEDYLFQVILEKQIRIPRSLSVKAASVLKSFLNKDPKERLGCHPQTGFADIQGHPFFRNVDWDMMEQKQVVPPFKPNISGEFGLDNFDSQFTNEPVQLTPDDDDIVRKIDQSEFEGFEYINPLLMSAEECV

[3] = target: kinases (KINOMEscan panel) (Homo sapiens, UniProt Q8IVW4); settings: kinase CDKL3; Published KINOMEscan; ref original PKIS2 published data; cited from earlier work
[4] = target: T2, kinases (KINOMEscan panel) (Homo sapiens, UniProt Q8TD19); settings: NEK9; Published KINOMEscan; ref original PKIS2 published data; cited from earlier work
T2 sequence (Q8TD19 1-979): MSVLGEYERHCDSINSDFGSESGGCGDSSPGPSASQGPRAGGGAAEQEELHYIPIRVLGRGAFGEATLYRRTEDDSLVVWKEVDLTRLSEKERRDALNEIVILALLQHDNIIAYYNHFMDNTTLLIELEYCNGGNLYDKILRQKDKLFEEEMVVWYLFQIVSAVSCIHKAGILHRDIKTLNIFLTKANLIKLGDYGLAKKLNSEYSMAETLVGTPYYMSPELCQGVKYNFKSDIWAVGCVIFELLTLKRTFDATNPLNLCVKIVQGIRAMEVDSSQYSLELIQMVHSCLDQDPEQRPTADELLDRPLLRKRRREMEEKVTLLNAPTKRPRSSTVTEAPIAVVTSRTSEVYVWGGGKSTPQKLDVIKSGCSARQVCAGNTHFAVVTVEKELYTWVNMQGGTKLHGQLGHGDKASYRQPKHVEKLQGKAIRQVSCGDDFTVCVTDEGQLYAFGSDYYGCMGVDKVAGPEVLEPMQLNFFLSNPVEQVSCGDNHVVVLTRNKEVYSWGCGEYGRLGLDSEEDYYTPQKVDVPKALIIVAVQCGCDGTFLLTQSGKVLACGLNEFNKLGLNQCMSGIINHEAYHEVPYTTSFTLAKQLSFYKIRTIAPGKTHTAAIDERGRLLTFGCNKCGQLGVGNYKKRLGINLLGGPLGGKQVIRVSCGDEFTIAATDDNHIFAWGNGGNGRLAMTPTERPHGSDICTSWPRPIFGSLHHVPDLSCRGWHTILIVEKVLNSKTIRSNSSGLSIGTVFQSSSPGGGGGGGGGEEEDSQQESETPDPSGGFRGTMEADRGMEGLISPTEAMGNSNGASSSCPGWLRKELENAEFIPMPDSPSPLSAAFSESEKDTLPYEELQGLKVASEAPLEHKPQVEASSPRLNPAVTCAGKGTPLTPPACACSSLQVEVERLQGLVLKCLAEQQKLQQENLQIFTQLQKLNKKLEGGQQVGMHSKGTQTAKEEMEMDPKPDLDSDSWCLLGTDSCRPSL

[5] = target: kinases (KINOMEscan panel) (Homo sapiens, UniProt P42338); settings: PIK3CB; Published KINOMEscan; ref original PKIS2 published data; cited from earlier work
kinases (KINOMEscan panel) (Homo sapiens, UniProt P42338), sequence (P42338 whole entry): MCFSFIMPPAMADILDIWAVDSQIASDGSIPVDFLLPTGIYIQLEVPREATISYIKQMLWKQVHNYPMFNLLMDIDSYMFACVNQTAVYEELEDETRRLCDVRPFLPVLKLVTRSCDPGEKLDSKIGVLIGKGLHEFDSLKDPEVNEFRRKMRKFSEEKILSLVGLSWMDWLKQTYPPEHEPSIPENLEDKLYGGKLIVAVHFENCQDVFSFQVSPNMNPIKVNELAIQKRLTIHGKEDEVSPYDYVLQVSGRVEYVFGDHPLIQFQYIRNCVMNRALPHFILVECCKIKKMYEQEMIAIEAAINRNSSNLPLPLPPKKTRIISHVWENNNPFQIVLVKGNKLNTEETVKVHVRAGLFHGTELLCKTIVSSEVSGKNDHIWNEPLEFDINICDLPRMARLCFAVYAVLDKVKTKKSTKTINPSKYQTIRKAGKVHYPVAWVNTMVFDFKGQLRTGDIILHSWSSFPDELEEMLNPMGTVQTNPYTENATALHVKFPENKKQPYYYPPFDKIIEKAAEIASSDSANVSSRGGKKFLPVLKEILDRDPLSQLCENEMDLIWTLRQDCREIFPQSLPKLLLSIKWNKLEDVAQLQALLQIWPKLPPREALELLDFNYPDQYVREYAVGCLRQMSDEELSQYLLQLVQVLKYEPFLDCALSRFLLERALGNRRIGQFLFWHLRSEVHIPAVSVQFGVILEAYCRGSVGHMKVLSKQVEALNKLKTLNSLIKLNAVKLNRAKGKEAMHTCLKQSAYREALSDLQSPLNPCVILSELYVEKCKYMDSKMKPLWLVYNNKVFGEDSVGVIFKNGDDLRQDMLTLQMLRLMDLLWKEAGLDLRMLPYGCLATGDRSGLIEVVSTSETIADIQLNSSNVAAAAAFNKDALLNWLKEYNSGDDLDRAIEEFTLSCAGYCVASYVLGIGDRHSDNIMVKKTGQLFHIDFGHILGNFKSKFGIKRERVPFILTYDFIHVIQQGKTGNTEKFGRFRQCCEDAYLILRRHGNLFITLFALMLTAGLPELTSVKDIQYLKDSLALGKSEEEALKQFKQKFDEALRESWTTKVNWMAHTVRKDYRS

[6] = target: kinases (KINOMEscan panel) (Homo sapiens, UniProt Q5S007); settings: Published KINOMEscan; ref original PKIS2 published data; cited from earlier work
kinases (KINOMEscan panel) (Homo sapiens, UniProt Q5S007), sequence (Q5S007 whole entry): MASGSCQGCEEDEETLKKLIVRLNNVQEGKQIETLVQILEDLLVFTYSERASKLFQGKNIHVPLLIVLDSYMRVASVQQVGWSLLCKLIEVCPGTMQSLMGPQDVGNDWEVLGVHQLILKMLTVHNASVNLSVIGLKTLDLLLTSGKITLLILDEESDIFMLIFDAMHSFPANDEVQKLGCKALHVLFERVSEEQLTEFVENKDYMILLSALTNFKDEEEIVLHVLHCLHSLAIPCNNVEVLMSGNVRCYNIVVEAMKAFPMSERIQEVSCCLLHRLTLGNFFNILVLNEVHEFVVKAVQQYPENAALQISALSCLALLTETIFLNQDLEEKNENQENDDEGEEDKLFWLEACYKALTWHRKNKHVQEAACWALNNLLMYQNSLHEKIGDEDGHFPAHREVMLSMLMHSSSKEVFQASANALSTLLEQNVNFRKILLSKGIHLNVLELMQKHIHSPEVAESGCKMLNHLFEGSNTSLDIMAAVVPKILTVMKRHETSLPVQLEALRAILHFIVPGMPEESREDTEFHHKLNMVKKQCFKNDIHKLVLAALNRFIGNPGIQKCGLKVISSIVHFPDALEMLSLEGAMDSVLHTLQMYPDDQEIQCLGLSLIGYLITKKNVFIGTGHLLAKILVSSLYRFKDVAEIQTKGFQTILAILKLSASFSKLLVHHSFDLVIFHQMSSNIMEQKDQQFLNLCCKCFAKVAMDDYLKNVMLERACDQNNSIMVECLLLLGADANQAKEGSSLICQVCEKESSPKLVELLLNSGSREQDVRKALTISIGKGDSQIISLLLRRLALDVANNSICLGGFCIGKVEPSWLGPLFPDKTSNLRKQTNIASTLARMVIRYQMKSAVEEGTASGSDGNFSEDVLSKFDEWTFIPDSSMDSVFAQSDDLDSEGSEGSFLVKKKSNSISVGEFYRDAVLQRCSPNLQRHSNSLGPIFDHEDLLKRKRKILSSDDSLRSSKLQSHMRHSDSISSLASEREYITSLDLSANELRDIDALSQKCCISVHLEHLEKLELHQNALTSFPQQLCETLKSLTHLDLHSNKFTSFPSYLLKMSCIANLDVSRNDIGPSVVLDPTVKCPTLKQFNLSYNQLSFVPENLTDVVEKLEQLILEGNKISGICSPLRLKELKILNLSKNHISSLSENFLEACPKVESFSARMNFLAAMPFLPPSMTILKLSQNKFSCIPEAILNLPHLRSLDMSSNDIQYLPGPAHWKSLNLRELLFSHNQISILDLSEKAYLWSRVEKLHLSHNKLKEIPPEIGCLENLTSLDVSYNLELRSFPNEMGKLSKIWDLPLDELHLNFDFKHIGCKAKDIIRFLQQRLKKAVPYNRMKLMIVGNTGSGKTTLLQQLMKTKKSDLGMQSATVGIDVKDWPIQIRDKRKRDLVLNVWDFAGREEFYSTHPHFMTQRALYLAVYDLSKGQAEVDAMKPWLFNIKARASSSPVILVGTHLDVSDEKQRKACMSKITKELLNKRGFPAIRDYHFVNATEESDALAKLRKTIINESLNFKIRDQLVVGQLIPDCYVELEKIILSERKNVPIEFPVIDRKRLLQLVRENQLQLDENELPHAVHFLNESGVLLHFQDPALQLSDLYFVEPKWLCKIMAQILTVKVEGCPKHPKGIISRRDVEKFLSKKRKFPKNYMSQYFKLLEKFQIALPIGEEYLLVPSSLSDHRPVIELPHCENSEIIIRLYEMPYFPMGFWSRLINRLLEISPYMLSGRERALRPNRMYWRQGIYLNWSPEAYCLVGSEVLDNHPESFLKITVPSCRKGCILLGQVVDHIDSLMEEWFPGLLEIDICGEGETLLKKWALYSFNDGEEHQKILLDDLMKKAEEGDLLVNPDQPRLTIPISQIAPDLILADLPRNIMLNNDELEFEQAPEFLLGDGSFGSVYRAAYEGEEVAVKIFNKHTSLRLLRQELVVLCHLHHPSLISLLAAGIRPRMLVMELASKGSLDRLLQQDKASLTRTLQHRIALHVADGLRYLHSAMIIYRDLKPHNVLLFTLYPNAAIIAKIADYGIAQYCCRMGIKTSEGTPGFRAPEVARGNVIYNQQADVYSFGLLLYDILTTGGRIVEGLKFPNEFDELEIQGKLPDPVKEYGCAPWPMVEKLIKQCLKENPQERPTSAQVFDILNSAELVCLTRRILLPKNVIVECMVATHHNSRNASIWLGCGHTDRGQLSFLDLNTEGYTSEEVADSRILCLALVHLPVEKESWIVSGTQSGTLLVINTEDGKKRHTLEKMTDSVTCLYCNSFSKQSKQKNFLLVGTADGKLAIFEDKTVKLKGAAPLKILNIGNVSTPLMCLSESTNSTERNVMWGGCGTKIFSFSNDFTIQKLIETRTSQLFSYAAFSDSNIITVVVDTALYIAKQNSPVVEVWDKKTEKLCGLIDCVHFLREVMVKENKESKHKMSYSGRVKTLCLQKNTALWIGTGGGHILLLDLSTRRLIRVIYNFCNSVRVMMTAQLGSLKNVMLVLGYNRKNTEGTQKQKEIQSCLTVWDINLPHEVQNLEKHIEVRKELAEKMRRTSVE

[7] = target: kinases (KINOMEscan panel) (Homo sapiens, UniProt P49760); settings: kinase CLK2; Published KINOMEscan; ref original PKIS2 published data; cited from earlier work
kinases (KINOMEscan panel) (Homo sapiens, UniProt P49760), sequence (P49760 whole entry): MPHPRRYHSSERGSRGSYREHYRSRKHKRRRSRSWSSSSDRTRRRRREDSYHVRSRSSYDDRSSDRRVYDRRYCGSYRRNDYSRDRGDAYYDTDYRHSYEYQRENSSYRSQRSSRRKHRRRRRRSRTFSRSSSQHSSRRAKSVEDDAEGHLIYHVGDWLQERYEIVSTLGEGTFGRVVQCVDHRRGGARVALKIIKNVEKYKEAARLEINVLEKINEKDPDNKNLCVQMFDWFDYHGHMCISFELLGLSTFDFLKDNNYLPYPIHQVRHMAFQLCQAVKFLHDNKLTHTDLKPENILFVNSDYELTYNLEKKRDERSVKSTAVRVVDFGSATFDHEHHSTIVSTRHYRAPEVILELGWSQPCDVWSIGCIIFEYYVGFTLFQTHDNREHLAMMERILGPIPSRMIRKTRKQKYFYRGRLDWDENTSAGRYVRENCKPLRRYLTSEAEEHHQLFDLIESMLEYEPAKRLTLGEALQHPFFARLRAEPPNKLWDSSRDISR

[8] = target: kinases (KINOMEscan panel) (Homo sapiens, UniProt P49761); settings: CLK3; Published KINOMEscan; ref original PKIS2 published data; cited from earlier work
kinases (KINOMEscan panel) (Homo sapiens, UniProt P49761), sequence (P49761 whole entry): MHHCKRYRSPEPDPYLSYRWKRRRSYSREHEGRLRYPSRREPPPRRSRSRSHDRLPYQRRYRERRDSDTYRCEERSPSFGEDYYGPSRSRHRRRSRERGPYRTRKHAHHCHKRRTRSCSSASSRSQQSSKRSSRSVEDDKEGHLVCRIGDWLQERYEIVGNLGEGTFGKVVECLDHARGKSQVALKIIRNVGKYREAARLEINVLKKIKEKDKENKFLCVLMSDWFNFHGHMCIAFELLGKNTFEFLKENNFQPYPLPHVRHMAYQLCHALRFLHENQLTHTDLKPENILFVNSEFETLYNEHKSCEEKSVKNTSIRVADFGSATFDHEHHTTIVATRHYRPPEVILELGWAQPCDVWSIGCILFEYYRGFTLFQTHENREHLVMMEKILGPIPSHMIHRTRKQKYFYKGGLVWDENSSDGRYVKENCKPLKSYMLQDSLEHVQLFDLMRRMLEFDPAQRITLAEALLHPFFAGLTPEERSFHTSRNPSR

[9] = target: kinases (KINOMEscan panel) (Homo sapiens, UniProt P07948); settings: Published KINOMEscan; ref original PKIS2 published data; cited from earlier work
kinases (KINOMEscan panel) (Homo sapiens, UniProt P07948), sequence (P07948 whole entry): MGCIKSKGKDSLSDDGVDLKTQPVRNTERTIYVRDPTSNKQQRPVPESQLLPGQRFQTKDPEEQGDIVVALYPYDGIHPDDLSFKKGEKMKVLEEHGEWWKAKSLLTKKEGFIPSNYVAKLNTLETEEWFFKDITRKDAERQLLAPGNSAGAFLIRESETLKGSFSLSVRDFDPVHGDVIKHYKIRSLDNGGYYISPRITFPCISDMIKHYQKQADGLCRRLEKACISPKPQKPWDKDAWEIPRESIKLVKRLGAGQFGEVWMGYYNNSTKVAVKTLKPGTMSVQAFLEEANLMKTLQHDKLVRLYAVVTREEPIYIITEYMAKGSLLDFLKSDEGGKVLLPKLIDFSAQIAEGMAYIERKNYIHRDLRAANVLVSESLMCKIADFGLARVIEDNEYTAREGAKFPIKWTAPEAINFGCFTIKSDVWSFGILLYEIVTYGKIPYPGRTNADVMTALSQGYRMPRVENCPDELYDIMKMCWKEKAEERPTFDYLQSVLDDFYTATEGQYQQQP

## Cc1cccc(-c2nc(Nc3ccncc3)c3ccccc3n2)n1 [NK215]
[1]
  KINOMEscan SRPK2: 54
[2]
  KINOMEscan PRKCI: 32
[3]
  KINOMEscan CDKL3: 0
[4]
  KINOMEscan NEK9: 0
[5]
  KINOMEscan PIK3CB: 0
[6]
  KINOMEscan LRRK2: 0
[7]
  KINOMEscan CLK2: 8
[8]
  KINOMEscan CLK3: 31
[9]
  KINOMEscan LYN: 0
